Test results: patent US20220354855A1, “TREATMENT FOR GASTROINTESTINAL DISORDERS” (Mayo Foundation for Medical Education and Research, priority 2019, published 2022)

Experiments:
[1] = test system: proximal colon mucosa submucosa preparations from germ free mice; experiment: Ussing chamber short circuit current (Isc) in response to CDCA, colon mucosa-submucosa preparations; conditions: CDCA applied basolaterally, n=3, Wilcoxon, FIG. 4E
Source text: FIGS. 4A-4E: An integrated metabolomics approach provides mechanistic insight into the effect of gut microbiota metabolism on host physiology. FIG. 4A is a series of graphs plotting the abundance of propionate (left), butyrate (center), and acetate (right) as determined by ^1H NMR using stool samples from healthy, IBS-C, and IBS-D subjects (averaged data per subject, pairwise Mann-Whitney tests). FIG. 4B is a pair of graphs plotting the abundance of tryptophan (left) and tryptamine (right) as determined by LC-MS in stool samples from healthy, IBS-C, and IBS-D subjects (averaged data per subject, pairwise Mann-Whitney tests). FIG. 4C is a series of graphs plotting the abundance of cholic acid (CA, left panel), chenodeoxycholic acid (CDCA, center panel), and deoxycholic acid sulfate (DCA-S, right panel) as determined by ^1H NMR with stool samples from healthy, IBS-C, and IBS-D subjects (mixed linear models correcting for subject). FIG. 4D is a series of graphs plotting the abundance of CA, CDCA, and DCA-S as determined by ^1H NMR using stool samples from healthy, IBS-C, and IBS-D subjects (averaged data per subject, pairwise Mann-Whitney tests). […]
Ussing chamber experiments: Colonic mucosal secretory responses were assessed using Ussing chamber setups. […]

[2] = test system: colonic biopsies from healthy, IBS-C, and IBS-D subjects; experiment: Ussing chamber short circuit current (ΔIsc) in response to serotonin (5-HT), colonic biopsies; set-up: species or system human; conditions: cumulative concentrations of 5-HT applied basolaterally; biopsies from IBS-C patients versus HC; FIG. 3C
Source text: FIGS. 3A-3F: Integrated top-down bottom-up approach provides mechanistic insight into the effect of gut microbiota metabolism on host physiology. FIG. 3A is a series of graphs plotting the abundance of propionate (left), butyrate (center), and acetate (right) as determined by ^1H NMR. The data are shown as mixed linear models correcting for subject in stool samples from healthy, IBS-C, and IBS-D subjects. FIG. 3B is a graph plotting the abundance of acetate in colonic biopsies. FIG. 3C is a graph plotting maximal ΔIsc (Imax) following application of cumulative concentrations of serotonin (5-HT) basolaterally in colonic biopsies from healthy, IBS-C, and IBS-D subjects. FIG. 3D is a graph plotting baseline Isc observed in colonic biopsies from healthy, IBS-C, and IBS-D subjects (P-values are Tukey HSD adjusted from a linear model). FIG. 3E is a pair of graphs plotting the abundance of tryptophan (left) and tryptamine (right) in stool samples from healthy, IBS-C, and IBS-D subjects. […]
Ussing chamber experiments: Colonic mucosal secretory responses were assessed using Ussing chamber setups. […] Short circuit current (Isc) was continuously recorded using Acquire and Analyze software (Physiologic Instruments). ΔIsc values were calculated using Isc measurements before and after application of compounds to the basolateral side and normalized to the tissue area. […]

**Q.** Which “Isc in response to CDCA (ΔIsc, Imax)” value [1] does the source give for C[C@H](CCC(=O)O)[C@H]1CC[C@H]2[C@@H]3[C@H](O)C[C@@H]4C[C@H](O)CC[C@]4(C)[C@H]3CC[C@]12C [CDCA, chenodeoxycholic acid] here?
**A.** significant increase in Isc

**Q.** Which “secretory response (maximal ΔIsc, Imax) to serotonin (5-HT)” value [2] does the source give for NCCc1c[nH]c2ccc(O)cc12 [serotonin (5-HT), serotonin] here?
**A.** significantly lower than HC
